Experimental findings from US9273040B2 (Merck Sharp & Dohme Corp., priority 2011, dated 2016) are described below.

Assay [1] has as its target T1, human Nav1.7 channels stably expressed in HEK 293 cells (Homo sapiens, UniProt Q15858).
T1 construct: expressed in transfected cells
Kind of assay: PatchXpress 7000 automated patch-clamp, sodium current. It is filed as cell-based. The conditions noted are these: 22° C., read-out: potency for the Nav 1.7 sodium ion channel (as measured by PatchXpress). The source says: (§1) To measure state and use-dependent sodium channel inhibition, test compounds were further characterized in an automated PatchXpress® assay (Molecular Devices). Two voltage-clamp protocols were used. 1) Use-dependent protocol: Cells were held at a membrane potential 20 mV negative to the potential at which ˜50% of the channels are inactivated (V0.5 inact). A train of 30 ms depolarizations to −20 mV was applied to the cells expressing Nav1.7 at a frequency of 10 Hz. […] Data was collected in the absence and presence of drug, and after drug washout. 2) A double-pulse protocol was used to measure inactivated state block. Cells were held at a potential 20 mV negative to V0.5 inact. A 8000 ms pre-pulse 7 mV positive to V0.5 inact was given followed by a hyperpolarizing 2 ms pulse to −120 mV and a 20 ms test pulse to −20 mV. Protocol was applied to cells in the absence, presence of compound and after washout. The temperature of PatchXpress instruments was maintained at 22° C. The following recording solutions were used. Internal solution (mM): 30 CsCl, 5 HEPES, 10 EGTA, 120 CsF, 5 NaF, 2MgCl2, pH=7.3 with CsOH, 324 mosmo. External solution (mM): 120 NMDG, 40 NaCl, 1 KCl, 0.5 MgCl2, 5 HEPES, 2.7 CaCl2, pH=7.5 with NMDG-OH.
(§2) For all electrophysiology experiments, offline analysis was used to correct for current rundown and to determine percent inhibition as a function of drug concentration. IC50 values were determined by fitting to the Hill equation.
Background: In patch-clamp work, channel activity is measured electrically.

Assay [2] addresses T2, human Nav1.5 channels stably expressed in HEK 293 cells (Homo sapiens, UniProt Q14524).
T2 construct: expressed in transfected cells
Described as above. It is filed as cell-based. The conditions noted are these: selectivity over Nav1.5.
Description: as §1, §2

T2 sequence (Q14524 whole entry): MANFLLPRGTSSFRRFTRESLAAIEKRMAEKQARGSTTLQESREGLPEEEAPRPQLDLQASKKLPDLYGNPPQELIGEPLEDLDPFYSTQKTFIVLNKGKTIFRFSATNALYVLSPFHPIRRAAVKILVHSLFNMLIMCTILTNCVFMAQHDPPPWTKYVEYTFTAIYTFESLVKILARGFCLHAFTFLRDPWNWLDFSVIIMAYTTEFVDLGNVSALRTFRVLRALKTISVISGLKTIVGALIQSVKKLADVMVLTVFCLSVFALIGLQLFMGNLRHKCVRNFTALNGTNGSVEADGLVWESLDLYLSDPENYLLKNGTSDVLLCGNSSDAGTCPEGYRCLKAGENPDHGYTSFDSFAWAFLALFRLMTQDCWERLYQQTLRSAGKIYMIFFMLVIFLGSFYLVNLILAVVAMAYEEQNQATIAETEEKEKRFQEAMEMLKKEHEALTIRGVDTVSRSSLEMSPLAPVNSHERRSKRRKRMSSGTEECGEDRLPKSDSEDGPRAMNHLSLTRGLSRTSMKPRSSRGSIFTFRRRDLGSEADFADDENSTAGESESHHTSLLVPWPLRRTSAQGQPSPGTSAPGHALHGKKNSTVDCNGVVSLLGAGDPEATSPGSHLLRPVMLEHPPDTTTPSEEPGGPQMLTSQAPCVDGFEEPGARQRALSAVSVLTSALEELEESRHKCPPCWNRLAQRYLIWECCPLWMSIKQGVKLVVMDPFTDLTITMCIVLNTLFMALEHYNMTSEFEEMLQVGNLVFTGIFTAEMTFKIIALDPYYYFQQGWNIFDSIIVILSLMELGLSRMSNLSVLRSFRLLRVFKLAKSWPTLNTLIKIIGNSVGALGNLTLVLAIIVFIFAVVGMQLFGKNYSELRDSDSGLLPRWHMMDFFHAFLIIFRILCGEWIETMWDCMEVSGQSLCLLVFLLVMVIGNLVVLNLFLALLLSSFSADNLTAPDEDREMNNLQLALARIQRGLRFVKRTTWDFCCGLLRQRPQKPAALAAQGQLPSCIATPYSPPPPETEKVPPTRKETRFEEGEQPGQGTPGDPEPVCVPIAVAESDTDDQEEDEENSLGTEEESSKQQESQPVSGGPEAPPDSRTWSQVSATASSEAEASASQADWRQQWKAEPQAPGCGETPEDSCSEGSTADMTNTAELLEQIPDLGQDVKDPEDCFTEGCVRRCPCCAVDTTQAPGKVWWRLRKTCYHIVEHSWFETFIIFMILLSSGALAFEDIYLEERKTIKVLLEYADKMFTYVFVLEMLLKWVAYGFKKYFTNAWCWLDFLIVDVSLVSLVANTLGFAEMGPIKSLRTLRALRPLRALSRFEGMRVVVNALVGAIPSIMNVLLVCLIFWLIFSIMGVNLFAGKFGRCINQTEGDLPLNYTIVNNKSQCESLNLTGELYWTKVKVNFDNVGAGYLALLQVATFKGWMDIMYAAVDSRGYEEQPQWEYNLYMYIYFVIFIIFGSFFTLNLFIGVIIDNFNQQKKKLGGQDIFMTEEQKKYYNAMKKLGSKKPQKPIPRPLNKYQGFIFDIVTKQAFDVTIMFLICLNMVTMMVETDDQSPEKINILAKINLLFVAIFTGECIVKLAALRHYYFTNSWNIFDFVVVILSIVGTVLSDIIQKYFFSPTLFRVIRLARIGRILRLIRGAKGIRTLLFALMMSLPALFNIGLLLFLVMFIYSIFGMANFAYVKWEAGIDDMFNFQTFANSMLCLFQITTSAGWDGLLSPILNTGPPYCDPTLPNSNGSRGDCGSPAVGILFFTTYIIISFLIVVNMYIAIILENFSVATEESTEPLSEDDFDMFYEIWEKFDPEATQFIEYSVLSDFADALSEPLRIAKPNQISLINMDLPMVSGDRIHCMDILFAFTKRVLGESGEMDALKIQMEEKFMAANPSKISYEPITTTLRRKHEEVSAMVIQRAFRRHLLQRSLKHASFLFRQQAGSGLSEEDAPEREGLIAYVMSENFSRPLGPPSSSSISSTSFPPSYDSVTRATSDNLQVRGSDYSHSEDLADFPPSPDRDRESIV
T1 sequence (Q15858 whole entry): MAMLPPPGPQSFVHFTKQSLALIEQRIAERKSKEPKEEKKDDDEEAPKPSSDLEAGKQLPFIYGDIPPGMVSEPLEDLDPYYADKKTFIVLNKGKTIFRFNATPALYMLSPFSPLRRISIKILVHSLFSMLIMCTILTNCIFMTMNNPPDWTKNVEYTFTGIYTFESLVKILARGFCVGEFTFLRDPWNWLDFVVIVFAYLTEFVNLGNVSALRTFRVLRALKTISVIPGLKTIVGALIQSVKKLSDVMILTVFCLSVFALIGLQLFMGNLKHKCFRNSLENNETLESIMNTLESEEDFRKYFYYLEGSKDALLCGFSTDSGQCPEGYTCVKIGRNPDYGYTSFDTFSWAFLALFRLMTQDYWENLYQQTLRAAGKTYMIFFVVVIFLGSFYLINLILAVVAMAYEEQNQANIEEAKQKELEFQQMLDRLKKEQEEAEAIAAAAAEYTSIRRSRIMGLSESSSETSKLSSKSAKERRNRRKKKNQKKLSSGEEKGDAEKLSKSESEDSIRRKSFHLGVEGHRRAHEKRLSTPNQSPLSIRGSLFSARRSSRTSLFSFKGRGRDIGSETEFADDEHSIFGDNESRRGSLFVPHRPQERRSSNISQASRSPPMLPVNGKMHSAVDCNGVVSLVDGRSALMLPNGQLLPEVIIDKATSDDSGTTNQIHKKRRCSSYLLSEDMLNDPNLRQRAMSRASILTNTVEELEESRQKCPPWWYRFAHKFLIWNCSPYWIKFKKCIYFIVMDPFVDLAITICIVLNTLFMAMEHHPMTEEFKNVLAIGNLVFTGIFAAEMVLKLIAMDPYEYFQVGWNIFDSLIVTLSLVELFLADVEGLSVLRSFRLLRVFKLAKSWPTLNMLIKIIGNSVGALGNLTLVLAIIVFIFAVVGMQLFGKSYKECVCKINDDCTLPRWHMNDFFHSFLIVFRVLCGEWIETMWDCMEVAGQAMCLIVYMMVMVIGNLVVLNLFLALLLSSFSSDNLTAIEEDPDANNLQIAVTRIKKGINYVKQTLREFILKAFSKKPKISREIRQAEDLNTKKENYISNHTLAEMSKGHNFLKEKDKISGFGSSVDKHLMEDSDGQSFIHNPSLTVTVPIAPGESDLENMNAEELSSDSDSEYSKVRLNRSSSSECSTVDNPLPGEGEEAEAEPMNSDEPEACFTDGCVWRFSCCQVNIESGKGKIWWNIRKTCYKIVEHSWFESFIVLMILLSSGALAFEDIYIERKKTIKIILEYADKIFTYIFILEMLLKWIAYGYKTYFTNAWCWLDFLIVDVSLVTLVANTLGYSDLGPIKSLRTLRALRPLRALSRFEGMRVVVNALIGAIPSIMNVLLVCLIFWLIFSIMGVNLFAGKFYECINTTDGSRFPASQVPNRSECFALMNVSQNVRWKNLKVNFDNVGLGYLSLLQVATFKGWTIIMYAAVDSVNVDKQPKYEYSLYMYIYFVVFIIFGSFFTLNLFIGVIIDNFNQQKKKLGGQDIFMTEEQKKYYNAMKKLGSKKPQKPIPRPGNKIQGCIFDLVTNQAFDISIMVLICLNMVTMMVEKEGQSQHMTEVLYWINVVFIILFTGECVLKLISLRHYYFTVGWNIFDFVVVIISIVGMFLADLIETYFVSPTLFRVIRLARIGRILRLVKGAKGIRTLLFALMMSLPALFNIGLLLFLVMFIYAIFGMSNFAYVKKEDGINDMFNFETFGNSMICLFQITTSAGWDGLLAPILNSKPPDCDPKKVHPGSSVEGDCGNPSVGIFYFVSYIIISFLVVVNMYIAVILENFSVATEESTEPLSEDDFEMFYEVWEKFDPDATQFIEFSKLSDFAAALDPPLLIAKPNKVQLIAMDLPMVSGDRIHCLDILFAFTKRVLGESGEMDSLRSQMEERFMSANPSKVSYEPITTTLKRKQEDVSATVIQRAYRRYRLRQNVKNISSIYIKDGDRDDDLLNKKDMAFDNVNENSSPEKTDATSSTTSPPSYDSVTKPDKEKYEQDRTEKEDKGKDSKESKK

On to `O=c1oc2cc(S(=O)(=O)Nc3ncns3)c(F)cc2n1Cc1cccc2c1CC(NCC(F)F)CC2` (racemic) [Compound 23-13, (+/−)-3-({7-[(2,2-difluoroethyl)amino]-5,6,7,8-tetrahydronaphthalen-1-yl}methyl)-5-fluoro-2-oxo-N-1,2,4-thiadiazol-5-yl-2,3-dihydro-1,3-benzoxazole-6-sulfonamide], for which, in assay [1], the IC50 came to 84 nM. Besides, the “ratio of Nav 1.5:Nav 1.7 potency, determined by PatchXpress measurement” value (“ratio of Nav 1.5:Nav 1.7 potency” below) in assay [2] was found to be 121.

With `CN(C)C1CCc2cccc(Cn3c(=O)oc4cc(S(=O)(=O)Nc5ncns5)c(F)cc43)c2C1` (racemic) [Compound 23-15, (+/−)-3-{[7-(dimethylamino)-5,6,7,8-tetrahydronaphthalen-1-yl]methyl}-5-fluoro-2-oxo-N-1,2,4-thiadiazol-5-yl-2,3-dihydro-1,3-benzoxazole-6-sulfonamide], the IC50 in assay [1] came to 72 nM. Also, the “ratio of Nav 1.5:Nav 1.7 potency” value in assay [2] stood at 207.

Take `O=c1oc2cc(S(=O)(=O)Nc3ncns3)c(F)cc2n1Cc1cccc2c1CC(N1CCOCC1)CC2` (racemic) [Compound 23-16, (+/−)-5-fluoro-3-[(7-morpholin-4-yl-5,6,7,8-tetrahydronaphthalen-1-yl)methyl]-2-oxo-N-1,2,4-thiadiazol-5-yl-2,3-dihydro-1,3-benzoxazole-6-sulfonamide]: in assay [1], the IC50 was 70 nM. The “ratio of Nav 1.5:Nav 1.7 potency” value in assay [2] stood at 431.

`NC1Cc2cccc(Cn3c(=O)oc4cc(S(=O)(=O)Nc5ncns5)c(F)cc43)c2C1` (racemic) [Compound 23-17, (+/−)-3-[(2-amino-2,3-dihydro-1H-inden-4-yl)methyl]-5-fluoro-2-oxo-N-1,2,4-thiadiazol-5-yl-2,3-dihydro-1,3-benzoxazole-6-sulfonamide]: the IC50 in assay [1] is 50 nM. In addition, the “ratio of Nav 1.5:Nav 1.7 potency” value in assay [2] is listed as 321.

With `CNC1CCc2cccc(Cn3c(=O)oc4cc(S(=O)(=O)Nc5ncns5)ccc43)c2C1` (racemic) [Compound 23-18, (+/−)-3-{[7-(methylamino)-5,6,7,8-tetrahydronaphthalen-1-yl]methyl}-2-oxo-N-1,2,4-thiadiazol-5-yl-2,3-dihydro-1,3-benzoxazole-6-sulfonamide], the IC50 in assay [1] is 47 nM. For the same molecule, the “ratio of Nav 1.5:Nav 1.7 potency” value in assay [2] came out at 642.

Consider `O=c1oc2cc(S(=O)(=O)Nc3ncns3)c(F)cc2n1Cc1cccc2c1CC(N1CCC1)CC2` (racemic) [Compound 23-19, (+/−)-3-[(7-azetidin-1-yl-5,6,7,8-tetrahydronaphthalen-1-yl)methyl]-5-fluoro-2-oxo-N-1,2,4-thiadiazol-5-yl-2,3-dihydro-1,3-benzoxazole-6-sulfonamide], for which the IC50 in assay [1] stood at 32 nM. Besides, the “ratio of Nav 1.5:Nav 1.7 potency” value in assay [2] worked out at 499.

As to `O=c1oc2cc(S(=O)(=O)Nc3ncns3)c(F)cc2n1Cc1cccc2c1CC(N1CCCC1)CC2` (racemic) [Compound 23-20, (+/−)-5-fluoro-2-oxo-3-[(7-pyrrolidin-1-yl-5,6,7,8-tetrahydronaphthalen-1-yl)methyl]-N-1,2,4-thiadiazol-5-yl-2,3-dihydro-1,3-benzoxazole-6-sulfonamide], the IC50 in assay [1] worked out at 30 nM. The “ratio of Nav 1.5:Nav 1.7 potency” value in assay [2] is 802.

Take `O=c1oc2cc(S(=O)(=O)Nc3ncns3)c(F)cc2n1Cc1cccc2c1CC(NCCF)CC2` (racemic) [Compound 23-21, (+/−)-5-fluoro-3-({7-[(2-fluoroethyl)amino]-5,6,7,8-tetrahydronaphthalen-1-yl}methyl)-2-oxo-N-1,2.4-thiadiazol-5-yl-2,3-dihydro-1,3-benzoxazole-6-sulfonamide]: the IC50 in assay [1] was determined as 28 nM. Further, the “ratio of Nav 1.5:Nav 1.7 potency” value in assay [2] was 920.

On to `O=c1oc2cc(S(=O)(=O)Nc3ncns3)c(F)cc2n1Cc1cccc2c1CC(NCCO)CC2` (racemic) [Compound 23-22, (+/−)-5-fluoro-3-({7-[(2-hydroxyethyl)amino]-5,6,7,8-tetrahydronaphthalen-1-yl}methyl)-2-oxo-N-1,2,4-thiadiazol-5-yl-2,3-dihydro-1,3-benzoxazole-6-sulfonamide], for which the IC50 in assay [1] worked out at 26 nM. Moreover, the “ratio of Nav 1.5:Nav 1.7 potency” value in assay [2] is recorded as 221.

In the case of `O=c1oc2cc(S(=O)(=O)Nc3ncns3)c(F)cc2n1Cc1cccc2c1CC(NCc1ccccc1)CC2` (racemic) [Compound 23-23, (+/−)-3-{[7-(benzylamino)-5,6,7,8-tetrahydronaphthalen-1-yl]methyl}-5-fluoro-2-oxo-N-1,2,4-thiadiazol-5-yl-2,3-dihydro-1,3-benzoxazole-6-sulfonamide], the IC50 in assay [1] amounted to 24 nM. Moreover, the “ratio of Nav 1.5:Nav 1.7 potency” value in assay [2] is listed as 502.

Consider `CC(c1cccc2c1CC(N)CC2)n1c(=O)oc2cc(S(=O)(=O)Nc3ncns3)c(F)cc21` (racemic) [Compound 23-24, (R,R and S,R) or (R,S and S,S)-3-[1-(7-amino-5,6,7,8-tetrahydronaphthalen-1-yl)ethyl]-5-fluoro-2-oxo-N-1,2,4-thiadiazol-5-yl-2,3-dihydro-1,3-benzoxazole-6-sutfonamide], for which, in assay [1], the IC50 came to 15 nM. In assay [2], the “ratio of Nav 1.5:Nav 1.7 potency” value was determined as 1119.

As for `CNC1CCc2cccc(Cn3c(=O)oc4cc(S(=O)(=O)Nc5ncns5)c(F)cc43)c2C1` (racemic) [Compound 23-26, (+/−)-5-fluoro-3-{[7-(methylamino)-5,6,7,8-tetrahydronaphthalen-1-yl]methyl}-2-oxo-N-1,2,4-thiadiazol-5-yl-2,3-dihydro-1,3-benzoxazole-6-sulfonamide], the IC50 in assay [1] was determined as 12 nM. Moreover, in assay [2], the “ratio of Nav 1.5:Nav 1.7 potency” value is 2451.

`CC(c1cccc2c1CNCC2)n1c(=O)oc2cc(S(=O)(=O)Nc3ncns3)c(Cl)cc21` (racemic) [Compound 34-7, (+/−)-5-chloro-2-oxo-3-[1-(1,2,3,4-tetrahydroisoquinolin-8-yl)ethyl]-N-1,2,4-thiadiazol-5-yl-2,3-dihydro-1,3-benzoxazole-6-sulfonamide]: in assay [1], the IC50 was 565 nM. Moreover, the “ratio of Nav 1.5:Nav 1.7 potency” value in assay [2] came out at 129.

Consider `CC(c1cccc2c1CN(S(C)(=O)=O)CC2)n1c(=O)oc2cc(S(=O)(=O)Nc3ncns3)c(Cl)cc21` (racemic) [Compound 36-2, (+/−)-5-chloro-3-{1-[2-(methylsulfonyl)-1,2,3,4-tetrahydroisoquinolin-8-yl]ethyl}-2-oxo-N-1,2,4-thiadiazol-5-yl-2,3-dihydro-1,3-benzoxazole-6-sulfonamide], for which the IC50 in assay [1] stood at 334 nM. Moreover, in assay [2], the “ratio of Nav 1.5:Nav 1.7 potency” value was 13.

Take `O=c1oc2cc(S(=O)(=O)Nc3nccs3)c(F)cc2n1Cc1cccc2c1CNCC2F` (racemic) [Compound 43-26, (+/-)-5-fluoro-3-[(4-fluoro-1,2,3,4-tetrahydroisoquinolin-8-yl)methyl]-2-oxo-N-1,3-thiazol-2-yl-2,3-dihydro-1,3-benzoxazole-6-sulfonamide]: the IC50 in assay [1] stood at 141 nM. Also, in assay [2], the “ratio of Nav 1.5:Nav 1.7 potency” value is listed as 150.

As for `COC(=O)NC1CCc2cccc(Cn3c(=O)oc4cc(S(=O)(=O)Nc5ncns5)c(F)cc43)c2C1` (single isomer, unassigned) [Compound 23-1, methyl (8-((6-(N-(1,2,4-thiadiazol-5-yl)sulfamoyl)-5-fluoro-2-oxobenzo[d]oxazol-3(2H)-yl)methyl)-1,2,3,4-tetrahydronaphthalen-2-yl)carbamate], the IC50 in assay [1] is 122 nM. In addition, in assay [2], the “ratio of Nav 1.5:Nav 1.7 potency” value came out at 71.

Consider `CC(=O)OCC(=O)NC1CCc2cccc(Cn3c(=O)oc4cc(S(=O)(=O)Nc5ncns5)c(F)cc43)c2C1` (single isomer, unassigned) [Compound 23-4, (R or S)-2-[(8-{[5-fluoro-2-oxo-6-(1,2,4-thiadiazol-5-ylsulfamoyl)-1,3-benzoxazol-3(2H)-yl]methyl}-1,2,3,4-tetrahydronaphthalen-2-yl)amino]-2-oxoethyl acetate], for which, in assay [1], the IC50 is 310 nM. Besides, in assay [2], the “ratio of Nav 1.5:Nav 1.7 potency” value amounted to 97.

As for `O=c1oc2cc(S(=O)(=O)Nc3ncns3)c(F)cc2n1Cc1cccc2c1CC(N1CCS(=O)(=O)CC1)CC2` (single isomer, unassigned) [Compound 23-6, (R or S)-3-{[7-(1,1-dioxidothiomorpholin-4-yl)-5,6,7,8-tetrahydronaphthalen-1-yl]methyl}-5-fluoro-2-oxo-N-1,2,4-thiadiazol-5-yl-2,3-dihydro-1,3-benzoxazole-6-sulfonamide], the IC50 in assay [1] came to 206 nM. Moreover, the “ratio of Nav 1.5:Nav 1.7 potency” value in assay [2] came out at 146.

For the molecule `NC1CCc2cccc(Cn3c(=O)oc4cc(S(=O)(=O)Nc5ncns5)ccc43)c2C1` (single isomer, unassigned) [Compound 23-10, (R or S)-3-[(7-amino-5,6,7,8-tetrahydronaphthalen-1-yl)methyl]-2-oxo-N-1,2,4-thiadiazol-5-yl-2,3-dihydro-1,3-benzoxazole-6-sulfonamide], in assay [1], the IC50 is 179 nM. The “ratio of Nav 1.5:Nav 1.7 potency” value in assay [2] came out at 167.
